For assay [1], the system named is rats. The experiment in a line: rat-tail flick method, intracerebroventricular injection. The format is in vivo. On the set-up: Mean Latency ± SEM Baseline / Mean Latency ± SEM Drug: unit not given here. As to conditions: lateral ventricle; for Mean % Change ± SEM: change in latency (drug minus baseline); for Mean Latency ± SEM Baseline / Mean Latency ± SEM Drug: rat-tail flick; for Mean Latency ± SEM Baseline: baseline before drug. The protocol: In this test method, which is a standard test for analgesia, a light beam is focused on the tip of the rat's tail, and the pain threshold of the animal is measured by the latency of the rat to remove his tail from the noxious heat source. When tested by the rat-tail flick method by intracerebroventricular injection, according to the procedure of Belluzzi et al., Nature, 260, 625 (1976), the polypeptides of this invention produced the effects set forth in Table I.
*All drugs were dissolved in […]. of Ringer's solution and injected int
the lateral ventricle through permanently-indwelling cannulae.

Assay [2] concerns rats. As to conditions: injection in the brain ventricle; cited from earlier work.

Peptide text beside a SMILES is read from it.

Turning to `CSCC[C@H](NC(=O)[C@H](Cc1ccccc1)NC(=O)CNC(=O)CNC(=O)[C@H](Cc1ccc(O)cc1)NC(=O)[C@@H](N)CCCNC(=N)N)C(=O)N[C@H](C(=O)N[C@@H](CO)C(=O)O)[C@@H](C)O` [L-Arginyl-L-Tyrosyl-Glycyl-Glycyl-L-Phenylalanyl-L-Methionyl-L-Threonyl-L-Serine] (H-RYGGFMTS-OH), the “Mean % Change ± SEM” value with rats [1] (dose 25 μg, 1 rat) is recorded as 69.60%; with rats [1] (dose 50 μg), 74.13 ± 15.56%; in the assay with rats [1] (dose 100 μg) it was 55.13 ± 51.71%. In addition, the “Mean Latency ± SEM Baseline” value came out at 3.54 in the assay with rats [1] (dose group 25 μg, 1 rat); 3.55 ± 0.13 in the assay on rats [1] (dose group 50 μg); 3.43 ± 0.05 with rats [1] (dose group 100 μg). Further, the “Mean Latency ± SEM Drug” value in the assay on rats [1] (dose 25 μg, 1 rat) came to 6.01; with rats [1] (dose 50 μg) it was 6.18 ± 0.55; in the assay with rats [1] (dose 100 μg), 5.29 ± 1.10.
For `CSCC[C@H](NC(=O)[C@H](Cc1ccccc1)NC(=O)CNC(=O)CNC(=O)[C@@H](N)Cc1ccc(O)cc1)C(=O)O` [Methionine-Enkephalin, H-Tyr-Gly-Gly-Phe-Met-OH, reference compound], the “Mean Latency ± SEM Baseline” value in the assay with rats [1] (dose group 100 μg) came to 3.83 ± 0.14. Moreover, the analgesia entry in the assay on rats [2] is on record as “induce a profound analgesia that is fully reversible by naloxone”.
Consider `CN1CC[C@]23c4c5ccc(O)c4O[C@H]2[C@@H](O)C=C[C@H]3[C@H]1C5` [Morphine], for which, in the assay with rats [1] (dose group 10 μg), the “Mean Latency ± SEM Baseline” value was determined as 3.96 ± 0.42.

The record behind these values is US4098781A, “Polypeptides with morphine-like activity” (American Home Products Corporation, priority 1977, dated 1978).
